# Laboratory results taken from a melting point compilation (Tetko et al.; mined from patent text by program, amines drawn as free bases though some values may be those of a salt).
row,SMILES,melting point
1,O=c1oc2cc(Oc3nnnn3-c3ccccc3)ccc2c2c1CN(Cc1ccccc1)CC2,165 to 166 °C
2,c1cc(-c2cnco2)cc(-c2ncc(-c3cccc(-c4cnc(-c5cccc(-c6cnco6)c5)o4)n3)o2)c1,254 to 256 °C
3,CCOC(=O)C1=C(C)Nc2ccn(C)c(=O)c2C1c1ccccc1OC (stereo unspecified),225 °C
4,Cc1ncc(CN2CCc3cc(-c4ccc(Cl)cc4)ccc3C2)c(N)n1,205 to 208 °C
5,COC1CCC2(C)C(=CC(=O)C3C4CCC(=O)C4(C)CCC32)C1 (stereo unspecified),227 to 229 °C
6,CCOC(=O)c1cnn2c(C(=O)N3CCN(C(=O)OC(C)(C)C)CC3)c(Cc3cccc(F)c3C)c(-c3ccccc3)c2c1Cl,88 to 90 °C
7,CS(=O)(=O)NC(=O)/C(C#N)=C/c1cn(-c2cc(C(F)(F)F)cc(C(F)(F)F)c2)nc1-c1cccc(Cl)c1,273 to 275 °C
8,O=C1NCc2ccc(-c3cccc4cc(Cc5cccc(C(F)(F)F)c5)sc34)cc21,151 to 152 °C
9,O=C1NCN(c2ccccc2)C12CCN(CCCn1c(=O)[nH]c3cccc(Cl)c31)CC2,258 °C
10,Cc1nnc(-c2ccc3occ(-c4ccc5c(c4)C(C)(C)CS5=O)c3c2)o1 (stereo unspecified),179 to 180 °C
11,N#CC1=CC2(CCSCC2)Oc2ccc([N+](=O)[O-])cc21,175 to 176 °C
12,Cc1cc(C(=O)O)ccc1Cc1cc2cc(C(F)(F)F)ccc2n1S(=O)(=O)c1cccc(C(C)(C)C)c1,135 °C
13,N#CC1=C(C2CCCC2)Nc2n[nH]cc2C1c1cccc(C#N)c1Br (stereo unspecified),247 °C
14,Cn1cc(Oc2ccccc2)c(=O)c(-c2ccc(Cl)c(C(F)(F)F)c2)c1,130 to 131 °C
15,CC(NC(=O)CBr)c1ccccc1 (stereo unspecified),60 to 61 °C
16,COC(=O)CCc1c(C=O)ccc2c1CCC(NS(=O)(=O)c1ccc(Cl)cc1)C2 (stereo unspecified),110 °C
17,CN(C)CC1CCCCN1CCCNC(=O)N1c2ccccc2C(=O)Nc2cccnc21 (stereo unspecified),160 to 162 °C
18,COCC1CN(c2ccc3ccc(N)cc3c2)C(=O)O1 (stereo unspecified),98 to 99 °C
19,Fc1cc2c(-c3cccs3)c(CBr)cnc2c(F)c1F,98 to 100 °C
20,Clc1ccc2c(c1)CNc1cc(Cl)ccc1O2,103 to 105 °C
21,CCC(=O)NS(=O)(=O)c1ccc(C2=C(c3ccccc3)C(=O)C(C)(C)O2)cc1Cl,191 to 192 °C
22,O=C(Nc1cccc(S(=O)(=O)NCC2CC2)c1)c1cnn2c(C(F)(F)F)cc(-c3ccc(C(F)(F)F)cc3)nc12,234 °C

row,SMILES,melting point
1,Cc1nnc(-c2ccc3occ(-c4ccc(OS(=O)(=O)C(F)(F)F)cc4)c3c2)o1,136 to 137 °C
2,CSC(=NC(=O)Cc1ccccc1)N(C)N=Cc1ccccc1,147 to 148 °C
3,Cc1c(-c2nnn[nH]2)oc2c(c1=O)CS(=O)(=O)c1ccccc1-2,268 to 270 °C
4,CS(=O)(=O)CC(=O)NCCn1ccc2ncnc(Nc3ccc(Oc4cccc(OC(F)(F)F)c4)c(Cl)c3)c21,133 to 135 °C
5,COc1cc(NS(C)(=O)=O)c(I)cc1N,110 to 112 °C
6,O=C1Nc2cccc(-c3cccc(NS(=O)(=O)c4cc(S(=O)(=O)c5ccccc5)cs4)c3)c2/C1=C/c1ccc[nH]1,132 to 134 °C
7,COC(=O)C(=CN(C)C)C(=O)c1cc(F)c(Cl)cc1Cl,107 to 109 °C
8,CC(C)N(C)CCOc1ccc(-n2ccc(OCc3ccc(Cl)cn3)cc2=O)cc1,137 to 138 °C
9,Cc1ccc(N2CSC(=NCc3ccc(C(F)(F)F)cc3)N(CC(F)(F)F)C2=O)cc1,97 to 98.5 °C
10,O=S(=O)(COc1ncc(Cl)cn1)c1ncc(Cl)cn1,135 °C
11,CCc1nnc(-c2cn3c(C)c(CC)c(OC)nc3n2)o1,170 to 172 °C
12,O=C(c1ccc(F)cc1)C1CCN(CCn2c(=O)c3ccccc3n(-c3ccccc3)c2=O)CC1,166 °C
13,COC(C)(C)c1ccc(Cl)c2nc3n(c12)CCCN3c1ccc(Cl)cc1Cl,203 to 204 °C
14,N#Cc1c[nH]cc1-c1cccc(Cl)c1F,178 °C
15,CN(C)S(=O)(=O)c1cc(-c2csc(=Nc3ccc4c(c3)OCO4)n2C)ccc1Cl,171 to 173 °C
16,BrCCCOc1ccc(Oc2ccccc2)cc1,54 to 55 °C
17,COc1cc2c(c3c1OC(C)(C)C3)C(c1ccnc(-n3c(=O)ccc4ccccc43)c1)=NC(C)(C)C2,190 to 191 °C
18,C=C1CCCCCCC(C(=O)OCC)NC1=O (stereo unspecified),91 to 92 °C
19,OC(CCl)CNc1ccc(Cl)c(Cl)c1 (stereo unspecified),51 to 53 °C
20,C=CCn1cc(Cl)cnc1=O,130 to 131 °C
21,"CN(CCO)C(=O)NC(CS)Cc1ccccc1 (single isomer, unassigned; (+))",86 °C
22,Clc1ccc(N=Cc2ccccc2)cc1Cl,62 to 65 °C

row,SMILES,melting point
1,COC(=O)[C@H](Cc1c[nH]cn1)NC(=O)C(CCCCc1ccccc1)Cc1cccc2ccccc12 (stereo partly specified),45 to 47 °C
2,Cc1c(NC(=O)C(CSC(=O)N(C)C)Cc2ccccc2)cccc1C(=O)O (stereo unspecified),84 to 87 °C
3,CCc1nn(-c2ccc3cc(-c4ccc([N+](=O)[O-])cc4)c(=O)oc3c2)nc1C,278 to 279 °C
4,c1nc(Nc2ccc3[nH]ccc3c2)c2sc(-c3ccc(CN4CCOCC4)cc3)cc2n1,141 to 152 °C
5,O=C1OC(=O)C(c2ccc(Cl)cc2)=C1Cl,110 to 112 °C
6,COc1ccc(C=Cc2ccc([N+](=O)[O-])cc2)cc1C,109 to 111 °C
7,COc1ccc(-c2nc(N)c(C#N)nc2-c2ccc(=O)n(C(C)C)c2)cc1,244 °C
8,O=C(O)c1cccc(Oc2cccc(-c3nn(Cc4ccc(C(F)(F)P(=O)(O)O)c(F)c4)c(=Nc4ccc(Cl)c(Cl)c4)s3)c2)c1,153 to 156 °C
9,Cc1c(Cc2cccc(C(F)(F)F)c2)sc2c(-c3cc(F)cc(C(=O)NCCO)c3)cccc12,151 to 152 °C
10,CCOC(=O)c1c(-c2cccc(C)c2)csc1N1C(=O)c2ccccc2C1=O,175 to 176 °C
11,NS(=O)(=O)c1ccc(NN=C2C(=O)Nc3ccc(C(=O)NCCCO)cc32)cc1,> 230 °C
12,COC(=O)c1c(N)cc(Cl)c(Cl)c1Cl,123 to 124 °C
13,COC(=O)CCSCCNC(=O)/C=C/C=C/c1ccccc1,58 to 60 °C
14,CN1C=C(C(=O)Nc2ccccc2)C(C(F)(F)F)N1CO (stereo unspecified),191 °C
15,Cc1ccc(S(=O)(=O)OCC2COC(C(F)(F)F)(C(F)(F)F)O2)cc1 (stereo unspecified),57 to 58.5 °C
16,O=[N+]([O-])c1ccc2ncnc(Nc3ccc4ncccc4c3)c2c1,> 300 °C
17,CC(C)(C)ON=C1CC(c2ccc(S(C)(=O)=O)cc2)=C1c1ccccc1,150 to 152 °C
18,CC(C)NC(=O)c1c(NC(=O)c2cc(C(F)(F)F)nn2-c2ncccc2Cl)ccc2cn[nH]c12,203 to 205 °C
19,Cc1cc(C(=O)N2Cc3cccn3Cc3ccccc32)ccc1NC(=O)c1ccc(Cl)cc1Cl,213 to 215 °C
20,O=C1NC(Cc2ccc(OCc3ccccc3)cn2)C(=O)NC1Cc1ccc(F)cc1 (stereo unspecified),220 to 222 °C
21,Fc1ccc(SC(F)(F)C(F)(F)C(F)(F)C(F)(F)C(F)(F)C(F)(F)C(F)(F)C(F)(F)Sc2ccc(F)cc2)cc1,60 to 61 °C
22,COc1ccccc1C(=O)c1cc2ccccc2[nH]1,129 to 130 °C
